Results from patent US5639474A (Hanmi Pharm. Ind., Ltd., priority 1993, dated 1997).

Conditions: for Change in contents (per capsule): Initial content: cosurfactant content in soft capsule
From the text: The membrane permeation property of dimethylisosorbide over the storage period at the room temperature was examined for the soft capsules prepared using dimethylisosorbide (ARLASOLVE® DMI) as a cosurfactant according to the present invention and then compared with the membrane permeation properties of ethanol, propylene glycol, Transcutol (diethylene glycol monoethyl ether) and Glycofurol (tetrahydrofurfuryl alcohol polyethylene glycol ether). The content of the cosurfactant in each soft capsule preparation was analyzed by gas chromatography. The components and their constitutional ratios in the compositions used in this experiment are given in the following Table 1 and the experiment results are given in the following Table 2.
Note: Conditions of gas chromatography for each cosurfactant
Column: Ultra 2 (Cross-linked 2% phenylmethyl silicone gun phase, 25 m×0.32 mm, thickness 0.52 μm)
Column temperature: 230° C. (Isothermal)
Detector: FID (Temperature: 270° C.)
Injection temperature: 275° C.
Carrier gas: He (Partition ratio 80:1)
Internal standard: Octyl alcohol
Column: HP-20M (Carbowax 20M) (25 m×0.32 mm, film thickness 0.3 μm)
Column temperature: 30° C. (Isothermal)
Detector: FID (Temperature: 200° C.)
Injection temperature: 150° C.
Internal standard: Diethyl ether
Column temperature: 180° C. (Isothermal)
Detector: FID (Temperature: 240° C.)
Injection temperature: 240° C.
Internal standard: Pentadecanoic acid methyl ester
Column: Ultra 2 (Cross-linked 5% phenylmethyl silicone gun phase, 25 m×0.32 mm, thickness 0.52 μm)
Injection temperature: 270° C.
Detector: FID (Temperature: 270° C.) p1 Injection temperature: 270° C.
Internal standard: Dimethylisosorbide

Compound: CCOCCOCCO [Transcutol, diethylene glycol monoethyl ether]
- Change in contents (per capsule): Initial content: 19.8
- Change in contents (per capsule): Storage period 2 days (room temperature): 7.3
- Change in contents (per capsule): Storage period 14 days (room temperature): 2.7

Compound: CC(O)CO (stereo not drawn) [Propylene glycol, propylene glycol]
- Change in contents (per capsule): Initial content: 19.8
- Change in contents (per capsule): Storage period 2 days (room temperature): 3.6
- Change in contents (per capsule): Storage period 5 days (room temperature, 5 days): 0.9

Compound: tetrahydrofurfuryl alcohol polyethylene glycol ether [Glycofurol]
- Change in contents (per capsule): Initial content: 19.8
- Change in contents (per capsule): Storage period 2 days (room temperature): 8.2
- Change in contents (per capsule): Storage period 14 days (room temperature): 3.2
